Measurements as given in publication PMC9599461, “Stereoselectivity in the Membrane Transport of Phenylethylamine Derivatives by Human Monoamine Transporters and Organic Cation Transporters 1, 2, and 3” (Biomolecules, 2022).
Read-outs that look alike come from different tables or passages of the source.

What was measured:
[1] = system: OCT2 A270S variant; test: Stereoselective uptake into OCT2 A270S variant-overexpressing HEK293 cells; conditions: 100 μM racemic substance, two minutes;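 note: uptake into HEK293 cells stably overexpressing human OCT2 variants, intracellular enantiomers quantified by chiral HPLC-MS/MS and normalized to total protein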
Experimental: (§1) All transport experiments were carried out in HEK293 cells stably overexpressing human MATs or OCTs. […] All cells were regularly cultivated in DMEM supplemented with 10% (v/v) FCS, penicillin (100 U/mL) and streptomycin (100 μg/mL)and kept in culture for no longer than 30 passages.
(§2) For the uptake experiments, 300,000 cells were plated in poly-D-lysine precoated 24-well plates 48 h ahead of the transport experiment. On the day of experiment, cells were initially washed once with 37 °C pre-warmed HBSS+ (Hanks buffered salt solution supplemented with 10 mM HEPES) and subsequently incubated with the substrates dissolved in pre-warmed HBSS+ for exactly two minutes. Incubation was stopped by adding ice-cold HBSS+ followed by two washing steps. After this, cells were lysed with 80% acetonitrile containing 10 ng/mL milnacipran as internal standard for high-performance liquid chromatography coupled to tandem mass spectrometry (HPLC-MS/MS) analysis. For every experiment, two additional wells per cell line were lysed using RIPA buffer for protein quantification. Total protein was quantified using the bicinchoninic acid assay [42]. This was later used for normalization of the uptake data.
(§3) Intracellularly accumulated test substances were quantified by HPLC-MS/MS analysis using a Shimadzu Nexera HPLC system with a SIL-30AC autosampler, a CTO-20AC column oven, a LC-30AD pump, and a CBM-20A controller (Shimadzu, Kyoto, Japan). Stereoselective chromatography was carried out on a [sequence] CBH HPLC column (100 × 3 mm inner dimension with 5 μM particle size; Sigma-Aldrich, Darmstadt, Germany) with a corresponding 10 × 3 mm guard column. Reversed phased chromatography was carried out using an ammonium acetate (NH4Ac) buffered aqueous mobile phase with isopropyl alcohol (IPA) as organic solvent. […] The order of elution of the enantiomers was obtained from available reference literature [43] or by applying enantiopure reference compounds to the chiral HPLC. […] However, in every other case where the order of elution was available, the (R)-enantiomer eluted first. Given the structural similarity of the investigated substances and the fact that separation was performed on the same column with almost identical mobile phases, we assume that this order of elution for our compound set is always the (R)- before the (S)-enantiomer.
(§4) Detection was performed with an API 4000 tandem mass spectrometer (AB SCIEX, Darmstadt, Germany) operating in multiple-reaction-monitoring mode. Quantification was performed using the Analyst 1.6.2 software (AB SCIEX, Darmstadt, Germany) and quantified by comparison to standard curves with known concentrations.
(§5) All uptake data were normalized to protein content to account for variation in the number of seeded sells. Transporter-mediated net uptake was calculated by subtracting uptake into empty vector-transfected control cells from uptake into transporter-transfected cells. Kinetic parameters were then determined after non-linear regression following the Michaelis–Menten equation (v = vmax × [S]/(Km + [S])) using GraphPad Prism (Version 5.01 for Windows, GraphPad Software, La Jolla, CA, USA). Vmax refers to the maximum transport velocity and Km is defined as the substance concentration required to reach half of vmax. The intrinsic clearance Clint was calculated as the quotient of vmax over Km.
(§6) HEK293 cells stably overexpressing wild-type or mutant OCT2 were incubated with 100 μM racemic substance for two minutes.

[2] = molecular target: T1, SERT (Homo sapiens, UniProt P31645); test: Stereoselective uptake into SERT-overexpressing HEK293 cells; conditions: for Clint ± SEM: quotient of vmax over Km;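 for all read-outs here: uptake into HEK293 cells stably expressing human SERT over 2 min, enantiomers measured in cell lysate by chiral HPLC-MS/MS, normalized to total protein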
T1 sequence (P31645 whole entry): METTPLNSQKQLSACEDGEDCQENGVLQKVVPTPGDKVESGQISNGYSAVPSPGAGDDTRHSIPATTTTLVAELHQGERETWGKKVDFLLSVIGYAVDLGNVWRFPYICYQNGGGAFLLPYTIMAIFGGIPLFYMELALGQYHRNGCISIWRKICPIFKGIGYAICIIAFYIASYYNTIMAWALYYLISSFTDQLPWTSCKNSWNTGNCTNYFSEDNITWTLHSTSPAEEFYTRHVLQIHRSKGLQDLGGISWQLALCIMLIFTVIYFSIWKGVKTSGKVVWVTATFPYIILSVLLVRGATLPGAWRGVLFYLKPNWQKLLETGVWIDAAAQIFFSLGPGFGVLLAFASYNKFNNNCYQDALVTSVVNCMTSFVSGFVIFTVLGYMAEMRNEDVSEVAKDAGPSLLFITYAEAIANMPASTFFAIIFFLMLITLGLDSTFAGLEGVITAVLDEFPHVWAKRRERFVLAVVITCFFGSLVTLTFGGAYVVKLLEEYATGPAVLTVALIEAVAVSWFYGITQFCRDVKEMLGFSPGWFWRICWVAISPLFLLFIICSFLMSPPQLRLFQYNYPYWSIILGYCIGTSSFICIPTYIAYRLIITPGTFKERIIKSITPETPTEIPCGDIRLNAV
Experimental: as §1, §2
(§7) Intracellularly accumulated test substances were quantified by HPLC-MS/MS analysis using a Shimadzu Nexera HPLC system with a SIL-30AC autosampler, a CTO-20AC column oven, a LC-30AD pump, and a CBM-20A controller (Shimadzu, Kyoto, Japan). […] CBH HPLC column (100 × 3 mm inner dimension with 5 μM particle size; Sigma-Aldrich, Darmstadt, Germany) with a corresponding 10 × 3 mm guard column. Reversed phased chromatography was carried out using an ammonium acetate (NH4Ac) buffered aqueous mobile phase with isopropyl alcohol (IPA) as organic solvent. […] The order of elution of the enantiomers was obtained from available reference literature [43] or by applying enantiopure reference compounds to the chiral HPLC.
as §4
(§8) All uptake data were normalized to protein content to account for variation in the number of seeded sells. Transporter-mediated net uptake was calculated by subtracting uptake into empty vector-transfected control cells from uptake into transporter-transfected cells. […] Vmax refers to the maximum transport velocity and Km is defined as the substance concentration required to reach half of vmax. The intrinsic clearance Clint was calculated as the quotient of vmax over Km.

[3] = molecular target: T2, OCT1 (Homo sapiens, UniProt O15245); test: Stereoselective uptake into OCT1-overexpressing HEK293 cells; conditions: for Clint ± SEM: quotient of vmax over Km; for selectivity ratio at 2 min: human;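 for all read-outs here: enantiomers quantified inside cells by chiral HPLC-MS/MS, uptake normalized to total protein from bicinchoninic acid assay, substrates applied in HBSS+ buffer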
T2 sequence (O15245 1-554): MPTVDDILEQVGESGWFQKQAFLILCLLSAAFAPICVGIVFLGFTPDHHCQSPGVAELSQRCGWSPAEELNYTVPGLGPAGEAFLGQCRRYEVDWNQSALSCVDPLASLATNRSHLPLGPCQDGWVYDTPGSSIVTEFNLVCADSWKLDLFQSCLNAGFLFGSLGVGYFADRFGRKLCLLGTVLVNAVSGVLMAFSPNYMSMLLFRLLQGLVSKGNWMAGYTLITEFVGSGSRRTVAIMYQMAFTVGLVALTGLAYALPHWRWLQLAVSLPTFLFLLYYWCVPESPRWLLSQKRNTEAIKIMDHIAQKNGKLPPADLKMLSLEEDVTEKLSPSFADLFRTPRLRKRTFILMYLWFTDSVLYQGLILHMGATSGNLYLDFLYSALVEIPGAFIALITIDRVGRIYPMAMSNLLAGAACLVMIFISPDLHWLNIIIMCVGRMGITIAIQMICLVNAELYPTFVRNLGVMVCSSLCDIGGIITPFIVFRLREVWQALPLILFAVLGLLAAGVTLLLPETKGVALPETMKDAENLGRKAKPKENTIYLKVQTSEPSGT

[4] = molecular target: DAT (Homo sapiens, UniProt Q01959); test: Stereoselective uptake into DAT-overexpressing HEK293 cells; conditions: for Saturable net uptake: result in words;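 for all read-outs here: intracellular accumulation measured by chiral HPLC-MS/MS in stably transfected HEK293 cells, normalized to total protein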
Chain of DAT (Q01959 whole entry): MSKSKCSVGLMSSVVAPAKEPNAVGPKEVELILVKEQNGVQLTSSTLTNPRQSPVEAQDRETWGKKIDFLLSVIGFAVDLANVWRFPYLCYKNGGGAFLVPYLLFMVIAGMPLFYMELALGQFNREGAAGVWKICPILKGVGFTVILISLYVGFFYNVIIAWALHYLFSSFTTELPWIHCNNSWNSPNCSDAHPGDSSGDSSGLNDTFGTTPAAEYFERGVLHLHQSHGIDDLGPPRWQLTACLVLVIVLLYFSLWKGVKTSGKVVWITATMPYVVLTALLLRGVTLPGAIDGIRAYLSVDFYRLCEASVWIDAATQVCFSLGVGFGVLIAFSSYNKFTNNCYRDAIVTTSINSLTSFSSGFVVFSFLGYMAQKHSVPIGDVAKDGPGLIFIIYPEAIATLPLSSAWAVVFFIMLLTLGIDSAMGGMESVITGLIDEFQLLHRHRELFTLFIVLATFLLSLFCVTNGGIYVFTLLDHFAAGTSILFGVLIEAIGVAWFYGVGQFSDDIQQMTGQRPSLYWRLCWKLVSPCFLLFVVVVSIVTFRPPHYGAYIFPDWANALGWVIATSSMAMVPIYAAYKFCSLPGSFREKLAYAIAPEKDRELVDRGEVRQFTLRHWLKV

[5] = molecular target: NET (Homo sapiens, UniProt P23975); test: Stereoselective uptake into NET-overexpressing HEK293 cells; conditions: for Clint ± SEM: quotient of vmax over Km; for selectivity ratio at 2 min: human;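 for all read-outs here: intracellular enantiomers quantified in cell lysates by chiral HPLC-MS/MS after a 2 min substrate incubation, with uptake normalized to total cellular protein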
Chain of NET (P23975 whole entry): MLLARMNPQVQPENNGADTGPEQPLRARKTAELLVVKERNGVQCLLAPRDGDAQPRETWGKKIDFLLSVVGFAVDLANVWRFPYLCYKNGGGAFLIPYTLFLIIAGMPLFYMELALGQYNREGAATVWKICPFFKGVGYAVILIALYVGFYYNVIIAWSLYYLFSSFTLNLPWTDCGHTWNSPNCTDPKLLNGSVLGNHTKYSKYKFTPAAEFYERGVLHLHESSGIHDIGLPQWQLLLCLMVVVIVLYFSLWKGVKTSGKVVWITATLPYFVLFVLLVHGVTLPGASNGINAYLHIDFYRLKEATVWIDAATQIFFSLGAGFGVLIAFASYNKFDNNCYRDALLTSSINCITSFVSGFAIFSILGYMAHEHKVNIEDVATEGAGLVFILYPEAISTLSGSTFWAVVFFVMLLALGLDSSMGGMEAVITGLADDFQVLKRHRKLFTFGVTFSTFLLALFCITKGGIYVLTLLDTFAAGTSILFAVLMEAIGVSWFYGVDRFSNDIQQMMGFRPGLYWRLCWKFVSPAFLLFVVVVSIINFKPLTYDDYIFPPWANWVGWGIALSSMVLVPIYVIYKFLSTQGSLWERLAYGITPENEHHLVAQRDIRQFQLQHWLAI
Experimental: as §1, §2
Intracellularly accumulated test substances were quantified by HPLC-MS/MS analysis using a Shimadzu Nexera HPLC system with a SIL-30AC autosampler, a CTO-20AC column oven, a LC-30AD pump, and a CBM-20A controller (Shimadzu, Kyoto, Japan). Stereoselective chromatography was carried out on a [sequence] CBH HPLC column (100 × 3 mm inner dimension with 5 μM particle size; Sigma-Aldrich, Darmstadt, Germany) with a corresponding 10 × 3 mm guard column. Reversed phased chromatography was carried out using an ammonium acetate (NH4Ac) buffered aqueous mobile phase with isopropyl alcohol (IPA) as organic solvent. […] The order of elution of the enantiomers was obtained from available reference literature [43] or by applying enantiopure reference compounds to the chiral HPLC. […] Given the structural similarity of the investigated substances and the fact that separation was performed on the same column with almost identical mobile phases, we assume that this order of elution for our compound set is always the (R)- before the (S)-enantiomer.
as §4, §5

[6] = molecular target: T3, OCT3 (Homo sapiens, UniProt O75751); test: Stereoselective uptake into OCT3-overexpressing HEK293 cells; conditions: for Clint ± SEM / Stereoselectivity Vmax / Stereoselectivity Km: OCT3; for Clint ± SEM: quotient of vmax over Km; for Stereoselectivity Vmax / Stereoselectivity Km: ratio between enantiomers; for Stereoselectivity Vmax: given as for (R) or for 1; for Stereoselectivity Km: given as for (R) or for 1 (first-eluting); for selectivity ratio at 2 min: human;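 for all read-outs here: intracellular accumulation in HEK293 cells measured by chiral HPLC-MS/MS after a 2 min substrate exposure at 37 °C, uptake normalized to total protein (bicinchoninic acid assay)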
T3 sequence (O75751 1-556): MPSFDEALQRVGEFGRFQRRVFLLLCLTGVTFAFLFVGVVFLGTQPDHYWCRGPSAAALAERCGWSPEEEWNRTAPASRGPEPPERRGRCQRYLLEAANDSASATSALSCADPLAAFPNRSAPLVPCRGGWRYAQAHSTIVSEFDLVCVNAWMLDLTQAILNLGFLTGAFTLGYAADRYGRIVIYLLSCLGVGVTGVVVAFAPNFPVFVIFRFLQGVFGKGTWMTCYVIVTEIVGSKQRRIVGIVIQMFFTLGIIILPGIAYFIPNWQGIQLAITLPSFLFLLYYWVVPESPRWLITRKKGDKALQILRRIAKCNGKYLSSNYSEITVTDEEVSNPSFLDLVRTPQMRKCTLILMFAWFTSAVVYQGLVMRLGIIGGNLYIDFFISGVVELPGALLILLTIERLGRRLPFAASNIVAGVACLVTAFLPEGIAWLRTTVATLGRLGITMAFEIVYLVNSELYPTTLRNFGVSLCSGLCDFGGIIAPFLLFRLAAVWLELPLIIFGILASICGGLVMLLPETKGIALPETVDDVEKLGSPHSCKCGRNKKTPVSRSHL

[7] = molecular target: T4, OCT2 (Homo sapiens, UniProt O15244); test: Stereoselective uptake into OCT2 (wild-type)-overexpressing HEK293 cells; conditions: for Clint ± SEM / selectivity ratio at 2 min: OCT2; for Clint ± SEM: quotient of vmax over Km; for selectivity ratio at 2 min: human, ratio between enantiomers
T4 sequence (O15244 1-555 S270A): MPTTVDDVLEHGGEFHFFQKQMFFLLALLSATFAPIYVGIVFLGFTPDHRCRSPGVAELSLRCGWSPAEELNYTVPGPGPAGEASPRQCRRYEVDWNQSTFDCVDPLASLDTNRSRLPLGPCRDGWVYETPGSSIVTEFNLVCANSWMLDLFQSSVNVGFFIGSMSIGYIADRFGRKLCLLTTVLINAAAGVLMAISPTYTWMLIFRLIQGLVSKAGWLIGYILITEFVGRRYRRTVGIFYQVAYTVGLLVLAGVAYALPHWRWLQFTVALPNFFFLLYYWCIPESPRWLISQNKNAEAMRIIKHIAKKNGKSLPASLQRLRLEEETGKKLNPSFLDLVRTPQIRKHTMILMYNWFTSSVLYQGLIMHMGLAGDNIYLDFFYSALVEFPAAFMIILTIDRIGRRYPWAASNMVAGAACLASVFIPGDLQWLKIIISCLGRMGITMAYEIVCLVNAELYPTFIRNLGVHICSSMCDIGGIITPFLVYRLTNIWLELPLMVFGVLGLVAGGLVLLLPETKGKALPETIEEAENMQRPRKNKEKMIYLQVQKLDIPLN

[8] = molecular target: T1, SERT; test: in vitro
Experimental: as §1, §2, §7, §4, §8

[9] = system: OCT2 wild-type versus A270S variant; test: in vitro; conditions: human, Transporter selectivity, OCT2 wild-type versus A270S, 100 μM racemic substance, two minutes
Experimental: as §1, §2, §3, §4, §5, §6

[10] = molecular target: T5, OCT2 (Homo sapiens, UniProt O15244, S270A); test: Stereoselective uptake into OCT2 (wild-type)-overexpressing HEK293 cells; conditions: OCT2, ratio between enantiomers
T5 sequence (O15244 1-555 S270A): T4 sequence (O15244 1-555 S270A)

[11] = Stereoselectivity Vmax, OCT1, ratio between enantiomers, given as for (R) or for 1
[12] = Stereoselectivity ClInt, given as for (R) or for 1
[13] = Stereoselectivity Vmax, given as for (R) or for 1

Compound | Stereoselectivity Km [2] | Stereoselectivity Vmax [2] | Clint ± SEM ([2]; SERT) | Clint ± SEM ([3]; OCT1) | selectivity ratio at 2 min ([3]; Stereoselectivity ClInt) | selectivity ratio at 2 min [3, 11] | Saturable net uptake ([4]; DAT) | Clint ± SEM [6] | Stereoselectivity Vmax [6] | Stereoselectivity Km [6] | selectivity ratio at 2 min [6] | Clint ± SEM [7] | selectivity ratio at 2 min [7, 12] | selectivity ratio at 2 min [7, 13] | selectivity ratio [8] | Clint ± SEM ([5]; NET) | selectivity ratio at 2 min [5] | selectivity ratio at 2 min, 100 μM ([9]; given as for WT) | other results
CNCC(O)c1ccc(O)c(OC)c1 (single isomer, unassigned) [Metanephrine-1, Metanephrine] | 1.09 fold | 1.08 fold | 0.58 mL × g Protein^−1 × min^−1 | 8.09 mL × g Protein^−1 × min^−1 | 1.16 | 1.06 | No saturable net uptake | 25.9 mL × g Protein^−1 × min^−1 | 1.19 fold | 1.19 fold | 1 | 20.6 mL × g Protein^−1 × min^−1 | 2.66 | 2.13 | 1.01 |  |  |  | Net uptake by A270S variant in comparison to the wild-type [1]: 120%; Vmax ± SEM ([3]; HEK293 cells overexpressing human OCT1, racemic substrate, two minutes, net uptake): 1082 pmol × mg Protein^−1 × min^−1; selectivity ratio at 2 min ([3]; Stereoselectivity Km, OCT1, ratio between enantiomers, given as for (S) or for 2 (second-eluting)): 1.09; Saturable net uptake ([5]; NET, result in words): No saturable net uptake; Vmax ± SEM ([7]; HEK293 cells overexpressing human OCT2, racemic substrate, two minutes, net uptake): 1127 pmol × mg Protein^−1 × min^−1; selectivity ratio at 2 min ([7]; Stereoselectivity Km, given as for (S) or for 2 (second-eluting)): 1.25; selectivity ratio at 2 min, 100 μM ([9]; given as for A270S): 1.2
NCC(O)c1cccc(O)c1 (single isomer, unassigned) [Norphenylephrine-1, Norphenylephrine] | 1.20 fold | 1.27 fold | 1.20 mL × g Protein^−1 × min^−1 | 4.02 mL × g Protein^−1 × min^−1 | 1.05 | 1.08 |  | 11.0 mL × g Protein^−1 × min^−1 | 3.88 fold | 1.17 fold | 3.32 | 36.4 mL × g Protein^−1 × min^−1 | 1.4 | 2.19 | 1.53 | 189 mL × g Protein^−1 × min^−1 | 1.21 | 1.18 | selectivity ratio at 2 min ([3]; Stereoselectivity Km, OCT1, ratio between enantiomers, given as for (R) or for 1 (first-eluting)): 1.03; Clint ± SEM ([4]; DAT, quotient of vmax over Km): 128 mL × g Protein^−1 × min^−1; Stereoselectivity Vmax ([4]; DAT, ratio between enantiomers, given as for (S) or for 2): 1.55 fold; Stereoselectivity Km ([4]; DAT, ratio between enantiomers, given as for (S) or for 2 (second-eluting)): 1.20 fold; selectivity ratio at 2 min ([4]; human): 1.29; Stereoselectivity Vmax ([5]; NET, ratio between enantiomers, given as for (S) or for 2): 1.25 fold; selectivity ratio at 2 min ([7]; Stereoselectivity Km, given as for (R) or for 1 (first-eluting)): 1.57
COc1cc(C(O)CN)ccc1O (single isomer, unassigned) [Normetanephrine-1, Normetanephrine] |  |  | 2.23 mL × g Protein^−1 × min^−1 | 2.46 mL × g Protein^−1 × min^−1 |  |  | No saturable net uptake | 19.4 mL × g Protein^−1 × min^−1 | 1.09 fold | 1.22 fold | 1.12 | 9.24 mL × g Protein^−1 × min^−1 |  |  | 1.28 | 2.71 mL × g Protein^−1 × min^−1 | 1.28 | 1.21 | Stereoselectivity Km ([2]; SERT, ratio between enantiomers, given as for (R) or for 1 (first-eluting)): 1.08 fold; Stereoselectivity Vmax ([2]; SERT, ratio between enantiomers, given as for (S) or for 2): 1.67 fold; Stereoselectivity Vmax ([3]; OCT1, ratio between enantiomers, given as for (R) or for 1): 1.47 fold; Stereoselectivity Km ([3]; OCT1, ratio between enantiomers, given as for (R) or for 1 (first-eluting)): 1.59 fold; Stereoselectivity ClInt ([3]; OCT1, ratio between enantiomers, given as for (S) or for 2): 1.08 fold; Stereoselectivity Vmax ([5]; NET, ratio between enantiomers, given as for (R) or for 1): 1.06 fold; Stereoselectivity Km ([5]; NET, ratio between enantiomers, given as for (R) or for 1 (first-eluting)): 1.35 fold; Stereoselectivity ClInt ([10]; given as for (R) or for 1): 1.56 fold; Stereoselectivity Km ([10]; given as for (R) or for 1 (first-eluting)): 1.32 fold; Stereoselectivity Vmax ([10]; given as for (S) or for 2): 2.06 fold
